Source: patent US20230235327A1, “A DBAIT MOLECULE IN COMBINATION WITH KRAS INHIBITOR FOR THE TREATMENT OF CANCER” (ONXEO, priority 2020, published 2023)

Assays:
Format in all cases: cell-based
NCI-H23 cells [1] = experiment: Flow cytometry of p16, p21, pPERK and transferrin receptor
Method: NCI-H23 were seeded in T25 flasks at 4.105 cells per flask and then treated for 24 h with AsiDNA™ at 100 nM or 5 μM for 24 hours. For intracellular staining (pPERK and CDK p16/CDK p21, mTOR, Bcl-2 staining), cells were washed, then fixed in PBS/70% Ethanol during at least 1 hour at 4° C. Cells were then washed, permeabilized with PBS/0.2% TritonX-100 solution at RT for 30 min, and saturated with PBS/2% Bovine Serum Albumin (BSA) solution at RT for 10 min. Then, cells were washed with PBS and incubated 1 hour with respectively, FITC-conjugated anti pPERK (Biorbyt, UK, 1:120), Alexa647-conjugated anti-CDK p16 (Cell signaling, Danvers Mass., USA, 1:50), Alexa488-conjugated anti-CDK p21 (Cell signaling, Danvers Mass., USA, 1:50), Alexa488-conjugated anti-mTOR (Cell signaling, Danvers Mass., USA, 1:50), Alexa647-conjugated anti-Bcl-2 (Cell signaling, Danvers Mass., USA, 1:50) before flow cytometry analysis (Guava EasyCyte 12H, Luminex, Germany). For cell-surface receptors staining with a PE-conjugated anti-transferrin receptor antibody (Thermofisher, Waltham Mass., USA, 1:20). Stained cells were then washed with PBS and fluorescence intensities were acquired with a Guava EasyCyte 12H flow cytometer (Luminex, Germany). Data were analyzed using FlowJo software (Tree Star, CA, USA), cells were harvested and washed directly after treatment end, and then incubated for 1 hour at 4° C.

MIA PaCa-2 cells = experiment: Selection of resistant populations, cell survival by cell counting; details: MIA PaCa-2, continuous 1 μM
Method: Cells were grown according to the supplier's instructions and maintained at 37° C. in a humidified atmosphere at 5% CO2. Medium was renewed twice a week and cells were passed when the confluence reached 70-80% depending on cell lines. Each cell line was generally kept in passage for no more than 2 months.
(§1) At least 3 to 6 independent populations were treated for each condition. Drugs were renewed twice a week to maintain a high pressure of resistance selection. Cells were harvested, washed and counted approximately ones a week after staining with 0.4% trypan blue (Sigma Aldrich, Saint-Louis, USA) using an automated cell counter (EVE™-Nanoentek).

NCI-H23 cells [2] = experiment: βgal staining (senescence detection)
Method: Slow cycling/senescent drug-tolerant cells were identified using Senescence detection kit according to the manufacturer instructions (Abcam; ab65351). Briefly, cells were seeded in 12-well culture plates and incubated overnight at 37° C. Cells were then washed twice with PBS, fixed during 10 minutes with 0.5 ml of Fixative solution at room temperature, washed twice with PBS and then stained using 0.5 ml of the Staining solution mix overnight at 37° C. Cells are then analyzed under microscope for development of blue color.

NCI-H23 cells [3] = experiment: Selection of resistant populations, cell growth by cell counting under continuous treatment
Method: Cell cultures were performed with non-small cell lung (NSCLC) cancer cell line NCI-H23, a KRAS^G12C mutant cell line (heterozygous mutation). The NCI-H23 cell line was purchased from the ATCC. Cells were grown according to the supplier's instructions and maintained at 37° C. in a humidified atmosphere at 5% CO2. Medium was renewed twice a week and cells were passed when the confluence reached 70-80% depending on cell lines. Each cell line was generally kept in passage for no more than 2 months.
as §1
Cells were seeded in T75 flasks with 5.10^5 cells per flask and incubated 24 hours at 37° C. before addition of AMG-510 (20 μM) with or without AsiDNA (doses ranging from 100 nM to 2500 nM). AsiDNA was added either concomitantly and continuously with the KRAS^G12C inhibitor or two weeks from the AMG-510 treatment start. At least 3 to 6 independent populations were treated for each condition. Drugs were renewed twice a week to maintain a high pressure of resistance selection. Cells were harvested, washed and counted approximately ones a week after staining with 0.4% trypan blue (Sigma Aldrich, Saint-Louis, USA) using an automated cell counter (EVE™-Nanoentek).

[4] = AMG-510 (20 μM) induced senescent cells vs parental cell line
[5] = NCI-H23 residual cells under treatment vs parental

C=CC(=O)N1CCN(c2nc(=O)n(-c3c(C)ccnc3C(C)C)c3nc(-c4c(O)cccc4F)c(F)cc23)[C@@H](C)C1 [AMG-510]
pPERK level (NCI-H23 cells [1]; [4]): increase | transferrin receptor level (NCI-H23 cells [1]; [4]): increase | p16 expression (NCI-H23 cells [1]; [5]): increases | p21 expression (NCI-H23 cells [1]; [5]): increases | time to emergence of acquired resistance after treatment start (MIA PaCa-2 cells): ~1 month | β-gal positive staining, cells in a senescent state (NCI-H23 cells [2]; NCI-H23, Day 17 of treatment): 50% | β-gal positive staining, cells in a senescent state (NCI-H23 cells [2]; NCI-H23, Day 27 of treatment): 10% | β-gal positive staining, cells in a senescent state (NCI-H23 cells [2]; NCI-H23, day 10 of treatment): 90% | resistance acquired under continuous treatment (NCI-H23 cells [3]; NCI-H23, AMG-510 20 μM or MRTX-849 1 μM alone): de-novo resistance | time from which cells restarted to divide and entered a proliferative state (NCI-H23 cells [3]; NCI-H23, continuous AMG-510 20 μM alone): two to three | initial sensitivity of cells to the inhibitor (NCI-H23 cells [3]; NCI-H23, continuous high dose/IC90, two first weeks of treatment): very sensitive
